“And” between values parts separate entries of the source, which are not always exact repeats. Identical values can stand only once.
Assays:
MN9D cells = test: Cytotoxicity, LDH release, MPP+-treated MN9D cells; assay type: cell-based, mouse
Experimental: Cells were transfected with Nurr1 subcloned into pcDNA3.1 vector[23] for Nurr1 overexpression (OE). […] Nurr1 OE or KD by transfection was analyzed by Western blot.
Cellular oxidative stress was detected using the DCFDA Cellular ROS Assay Kit (Abcam) according to the manufacturer’s protocol. Briefly, cells seeded in black clear bottom 96 well plate were stained with DCFDA solution (20 µM) for 45 min at 37 °C. […] Cytotoxicity was determined by measuring lactate dehydrogenase (LDH) release into the culture medium using a LDH cytotoxicity detection kit (Roche)[33]. Absorbance was measured at 490 nm with a microplate reader and cytotoxicity was calculated as a percentage (%) relative to 1% TritonX-100 control. Cell viability was determined using 3-(4,5-dimethylthiazol-2-yl)-2,5-diphenyltetrazolium bromide (MTT) as previously described. Briefly, cells were incubated with 5 mg/ml of MTT (Sigma-Aldrich) solution for 3.5 h at 37 °C. MTT formazan crystals were dissolved in 10 times the volume of MTT solvent (4 mM HCl and 0.1% Nonidet P-40 in isopropanol) and the absorbance from the generated blue formazan was measured at 570 nm after 15 min incubation at room temperature. Cell viability was calculated as a percentage (%) of MTT reduction relative to vehicle control.

[1] = tested on: AAV-αSyn-induced male mice; test: pS129 αSyn+ cells in SNpc, AAV-αSyn-induced mice; assay type: in vivo, mouse
Excerpt: Adeno-associated viruses (AAVs) expressing GFP only or αSyn (wild-type or A53T) were kindly provided by Dr. Yoon Seong Kim from the University of Central Florida. Recombinant AAV vectors were produced using modified pAAV-IRES-hrGFP (Agilent) to express wild-type and mutant human αSyn under control of the CMV promoter. Viral particles (AAV2) were produced at the University of Iowa Viral Vector Core according to standard operating procedures (https://medicine.uiowa.edu/vectorcore/). […] AAV vectors were delivered into the substantia nigra unilaterally by stereotaxic surgery.
Images were acquired using a KEYENCE microscope and quantified as the number or optical density of immunoreactive cells using ImageJ software.
The numbers of TH^+ DA neurons, NeuN^+ neurons, pS129 αSyn^+ cells in the SN and Iba-1^+ microglia in the SN and striatum were stereologically counted in six coronal sections (30 µm thickness) taken every 6th section (180 µm intervals) for each brain. The boundaries of the SN and striatum were delimited at low magnification (4X) to estimate each total area. Immunoreactive cells were counted with images taken at high magnification (×40) by a single blinded investigator. The group mean of the total number of immunoreactive cells from each brain was transformed as percentage of the number in the control group (%). For AAV-αSyn-induced mice, the group mean of the total number of cells in the ipsilateral side was transformed as a percentage of that observed in the contralateral side.

HeLa cells = test: Lysosomal pH detection, LysoSensor, HeLa cells; assay type: cell-based; conditions: Supplementary Figure S7d; individual replicates
Experimental: (§1) Lysosomal pH was detected as previously described. Briefly, after incubation in EBSS containing BafA1 (10 nM), CQ (20 µM), or 4A7C-301 (1 µM) for 6 h, HeLa and N27-A cells were treated with LysoSensor™ Yellow/Blue DND-160 (5 µM; Life Technology) for 45 min, followed by 2 washes in HEPES buffer (Gibco). Fluorescence images at excitation/emission wavelengths of 360/460 nm and 470/525 nm were taken immediately using a 400 nm dichroic mirror (KEYENCE). The ratio of fluorescence intensities (F360/470) were measured and calculated manually using ImageJ for each cell. The average pH from measuring 5 cells from each of three wells for each treatment group in both HeLa and N27-A cells was calculated by fitting the F360/470 values to a plotted pH calibration curve with KCl/NaCl buffered from pH 3.5 to 7.0 using GraphPad Prism (Version 8.0.2).

N27-A cells [2] = test: Lysosomal pH detection, LysoSensor, N27-A cells; assay type: cell-based, rat; conditions: Figure 3d; individual replicates
Experimental: as §1

N27-A cells [3] = test: Mitochondrial activity assay, Seahorse XFp, N27-A cells; assay type: cell-based, rat; set-up: Seahorse time trace (OCR): unit not given here; conditions: for OCR changes after FCCP injection: MPP+ co-treatment, individual replicates (Supplementary Figure S1o); for Seahorse time trace (OCR) / Basal respiration / Maximal respiration / ATP turnover: replicates; for Basal respiration: Fig. S1l; for Basal respiration / Maximal respiration / ATP turnover: with MPP+; for Maximal respiration: Fig. S1m; for ATP turnover: Fig. S1n
Experimental: Mitochondrial activity was measured using the Seahorse XFp analyzer (Agilent Technologies) according to the manufacturer’s instruction. Briefly, cells were plated onto wells of a XFp cell culture miniplate and incubated in a 37 °C incubator overnight. The assay was performed after cells were equilibrated for 1 h in XF assay medium supplemented with 10 mM D-glucose, 5 mM sodium pyruvate, and 2 mM glutamax in a non-CO2 incubator. Mitochondrial activity was monitored through sequential injections of 1 μM oligomycin, 2 μM carbonyl cyanide-4 (trifluoromethoxy) phenylhydrazone (FCCP) and 0.5 μM rotenone/antimycin A to calculate basal respiration (= baseline oxygen consumption rate (OCR)−rotenone/antimycin A OCR), maximal respiration (= FCCP OCR−rotenone/antimycin A OCR), ATP turnover (= baseline OCR−oligomycin OCR), and OCR changes after FCCP injection (= FCCP OCR−oligomycin OCR). Each plotted value was normalized to total protein quantified using a Bradford protein assay (Bio-Rad) and analyzed using the Seahorse WAVE Desktop software (Agilent Technologies).

## CCN1CCN(c2cc(N3CCN(CC)CC3)nc(NCCNc3ccnc4cc(Cl)ccc34)n2)CC1 [4A7C-301, N^1-(4,6-bis(4-ethylpiperazin-1-yl)pyrimidin-2-yl)-N^2-(7-chloroquinolin-4-yl)ethane-1,2-diamine]
MN9D cells; Fig. S1g, with MPP+, conc. 0.1 µM, replicates
  LDH release (%): 41.8716% and 42.3575% and 42.6815%
MN9D cells; Fig. S1g, with MPP+, conc. 0.5 µM, replicates
  LDH release (%): 39.0371% and 39.604% and 39.28%
MN9D cells; Fig. S1g, with MPP+, conc. 1 µM, replicates
  LDH release (%): 37.6198% and 37.0529% and 37.2958%
MN9D cells; Fig. S1g, with MPP+, conc. 5 µM, replicates
  LDH release (%): 37.2149% and 37.0124% and 37.6198%
MN9D cells; Fig. S1g, with MPP+, conc. 10 µM, replicates
  LDH release (%): 36.486% and 37.8628% and 37.3363%
MN9D cells; Fig. S3f, MPP+, Control, CQ 100 µM, 4A7C-301 1 µM
  LDH release (%): 38.8915% and 36.4082% and 36.6047% and 41.8443%
MN9D cells; Fig. S3f, MPP+, Nurr1 KD, CQ 100 µM, 4A7C-301 1 µM
  LDH release (%): 55.7866% and 55.7395% and 56.0212% and 56.0866%
MN9D cells; Fig. S3f, MPP+, Nurr1 OE, CQ 100 µM, 4A7C-301 1 µM
  LDH release (%): 24.7388% and 23.725% and 24.6956% and 22.8802%
MN9D cells; Fig. S3d, with MPP+, 0.1 µM
  LDH release (%): 43.0575% and 41.9759% and 41.8986%
MN9D cells; Fig. S3d, with MPP+, 0.5 µM
  LDH release (%): 40.7398% and 41.2806% and 41.0489%
MN9D cells; Fig. S3d, with MPP+, 1 µM
  LDH release (%): 39.0016% and 38.0746% and 37.5724%
MN9D cells; Fig. S3d, with MPP+, 5 µM
  LDH release (%): 38.2677% and 37.7656% and 37.302%
MN9D cells; Fig. S3d, with MPP+, 10 µM
  LDH release (%): 35.5638% and 36.4136% and 37.4179%
MN9D cells; MN9D cells, MPP+-induced cytotoxicity
  concentration of maximal efficiency, times lower than CQ: ~ 20 times
[1]; αSynA53T-mice
  phosphorylated αSyn (αSynS129) in SN (in words): significantly reduced
[1]; αSynWT-mice
  phosphorylated αSyn (αSynS129) in SN (in words): significantly diminished
HeLa cells
  Lysosomal pH: 4.318 and 4.4486 and 4.774 and 4.612 and 4.807 and 4.905 and 4.677 and 3.797 and 4.742 and 4.872 and 3.764 and 3.96 and 3.927 and 3.536
N27-A cells [2]
  Lysosomal pH: 3.797 and 3.992 and 4.709 and 4.807 and 4.383 and 3.8621 and 3.96 and 4.416 and 4.97 and 4.481 and 4.351 and 4.742 and 4.221 and 3.927
N27-A cells [3]; CQ 100 µM, 4A7C-301 1 µM
  OXPHOS capacity reduced by MPP+ (in words): efficiently restored
N27-A cells [3]; Control N27-A cells
  OCR changes after FCCP injection: 22.93 pmol/min/µg protein and 28.37 pmol/min/µg protein and 27.04 pmol/min/µg protein and 22.31 pmol/min/µg protein
N27-A cells [3]; Fig. S1j/k, Control + MPP+, time 2 min
  Seahorse time trace (OCR): 28.88 and 28.2 and 18.44 and 14.94
N27-A cells [3]; Fig. S1j/k, Control + MPP+, time 8 min
  Seahorse time trace (OCR): 28.86 and 28.61 and 14.72 and 11.2
N27-A cells [3]; Fig. S1j/k, Control + MPP+, time 15 min
  Seahorse time trace (OCR): 28.17 and 28.8 and 13.75 and 10.54
N27-A cells [3]; Fig. S1j/k, Control + MPP+, time 21 min
  Seahorse time trace (OCR): 9.43 and 9.81 and 3.69 and 2.8
N27-A cells [3]; Fig. S1j/k, Control + MPP+, time 28 min
  Seahorse time trace (OCR): 9.7 and 9.86 and 4.4 and 3.39
N27-A cells [3]; Fig. S1j/k, Control + MPP+, time 34 min
  Seahorse time trace (OCR): 9.59 and 9.6 and 4.42 and 3.28
N27-A cells [3]; Fig. S1j/k, Control + MPP+, time 41 min
  Seahorse time trace (OCR): 32.36 and 38.18 and 30.73 and 25.11
N27-A cells [3]; Fig. S1j/k, Control + MPP+, time 47 min
  Seahorse time trace (OCR): 29.9 and 35.04 and 27.29 and 22.64
N27-A cells [3]; Fig. S1j/k, Control + MPP+, time 54 min
  Seahorse time trace (OCR): 29.63 and 34.46 and 27.32 and 22.95
N27-A cells [3]; Fig. S1j/k, Control + MPP+, time 61 min
  Seahorse time trace (OCR): 9.52 and 9.47 and 4.93 and 3.5
N27-A cells [3]; Fig. S1j/k, Control + MPP+, time 67 min
  Seahorse time trace (OCR): 9.83 (2×) and 4.57 and 3.36
N27-A cells [3]; Fig. S1j/k, Control + MPP+, time 74 min
  Seahorse time trace (OCR): 9.8 and 10.29 and 4.41 and 3.28
N27-A cells [3]; Fig. S1j, Nurr1 OE + MPP+, time 2 min
  Seahorse time trace (OCR): 21.96 and 38.12 and 34.89 and 26.1
N27-A cells [3]; Fig. S1j, Nurr1 OE + MPP+, time 8 min
  Seahorse time trace (OCR): 20.5 and 33.32 and 33.36 and 24.15
N27-A cells [3]; Fig. S1j, Nurr1 OE + MPP+, time 15 min
  Seahorse time trace (OCR): 22.25 and 31.43 and 31.49 and 19.26
N27-A cells [3]; Fig. S1j, Nurr1 OE + MPP+, time 21 min
  Seahorse time trace (OCR): 7.36 and 10.03 and 6.69 and 7.02
N27-A cells [3]; Fig. S1j, Nurr1 OE + MPP+, time 28 min
  Seahorse time trace (OCR): 8.04 and 9.23 and 7.6 and 8.44
N27-A cells [3]; Fig. S1j, Nurr1 OE + MPP+, time 34 min
  Seahorse time trace (OCR): 7.79 and 8.85 and 8.38 and 8.58
N27-A cells [3]; Fig. S1j, Nurr1 OE + MPP+, time 41 min
  Seahorse time trace (OCR): 58.47 and 42.11 and 44.82 and 40.84
N27-A cells [3]; Fig. S1j, Nurr1 OE + MPP+, time 47 min
  Seahorse time trace (OCR): 58.99 and 40.77 and 43.63 and 37.36
N27-A cells [3]; Fig. S1j, Nurr1 OE + MPP+, time 54 min
  Seahorse time trace (OCR): 57.85 and 39.58 and 42.17 and 36.47
N27-A cells [3]; Fig. S1j, Nurr1 OE + MPP+, time 61 min
  Seahorse time trace (OCR): 7.42 and 11.41 and 5.09 and 5.68
N27-A cells [3]; Fig. S1j, Nurr1 OE + MPP+, time 67 min
  Seahorse time trace (OCR): 7.08 and 11.69 and 6.18 and 6.3
N27-A cells [3]; Fig. S1j, Nurr1 OE + MPP+, time 74 min
  Seahorse time trace (OCR): 8.5 and 11.39 and 6.45 and 6.32
N27-A cells [3]; Fig. S1k, Nurr1 KD + MPP+, time 2 min
  Seahorse time trace (OCR): 9.8 and 10.5 and 12.93 and 13.97
N27-A cells [3]; Control cells
  Basal respiration: 19.37 pmol/min/µg protein and 19.34 pmol/min/µg protein and 12.02 pmol/min/µg protein and 10.67 pmol/min/µg protein
  Maximal respiration: 22.85 pmol/min/µg protein and 28.71 pmol/min/µg protein and 26.31 pmol/min/µg protein and 21.83 pmol/min/µg protein
  ATP turnover: 19.25 pmol/min/µg protein and 18 pmol/min/µg protein and 12.75 pmol/min/µg protein and 12.14 pmol/min/µg protein
N27-A cells [3]; Nurr1 KD cells
  Basal respiration: 6.31 pmol/min/µg protein and 5.78 pmol/min/µg protein and 7.24 pmol/min/µg protein and 8.35 pmol/min/µg protein
  Maximal respiration: 28.48 pmol/min/µg protein and 29.74 pmol/min/µg protein and 27.18 pmol/min/µg protein and 19.97 pmol/min/µg protein
  ATP turnover: 5.27 pmol/min/µg protein and 5.05 pmol/min/µg protein and 6.03 pmol/min/µg protein and 7.23 pmol/min/µg protein
N27-A cells [3]; Nurr1 OE cells
  Basal respiration: 19.17 pmol/min/µg protein and 26.73 pmol/min/µg protein and 28.79 pmol/min/µg protein and 22.43 pmol/min/µg protein
  Maximal respiration: 51.91 pmol/min/µg protein and 33.72 pmol/min/µg protein and 39.72 pmol/min/µg protein and 35.16 pmol/min/µg protein
  ATP turnover: 17.88 pmol/min/µg protein and 29.57 pmol/min/µg protein and 28.2 pmol/min/µg protein and 20.09 pmol/min/µg protein
N27-A cells [3]; Nurr1 KD N27-A cells
  OCR changes after FCCP injection: 27.63 pmol/min/µg protein and 29.1 pmol/min/µg protein and 27.24 pmol/min/µg protein and 20.05 pmol/min/µg protein
N27-A cells [3]; Nurr1 OE N27-A cells
  OCR changes after FCCP injection: 50.72 pmol/min/µg protein and 34.26 pmol/min/µg protein and 38.13 pmol/min/µg protein and 33.82 pmol/min/µg protein

Reference: PMC10354055, “An optimized Nurr1 agonist provides disease-modifying effects in Parkinson’s disease models” (Nature Communications, 2023)
